For one data set, the system named is H1299 cells. The experiment in a line: Anti-proliferative effect on H1299 cells by Cell Titer-Glo. In kind it is cell-based. To be noted: 3 days. Summed up:
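H1299 cells exposed to compound dilutions for 3 days at 37 °C, 5% CO2, final DMSO 0.2%. Viability read by CellTiter-Glo luminescence, normalised to untreated-cell (max) and medium (min) controls. IC50 from a variable-slope log(inhibitor) vs. response fit.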
In general terms: In ATP-based viability assays light output follows the ATP content of the culture.

The target of a further data set is T1, Wee1 protein (Homo sapiens, UniProt P30291).
T1 construct: purchased Thermo Fisher PR7373A
T1 sequence (P30291 whole entry): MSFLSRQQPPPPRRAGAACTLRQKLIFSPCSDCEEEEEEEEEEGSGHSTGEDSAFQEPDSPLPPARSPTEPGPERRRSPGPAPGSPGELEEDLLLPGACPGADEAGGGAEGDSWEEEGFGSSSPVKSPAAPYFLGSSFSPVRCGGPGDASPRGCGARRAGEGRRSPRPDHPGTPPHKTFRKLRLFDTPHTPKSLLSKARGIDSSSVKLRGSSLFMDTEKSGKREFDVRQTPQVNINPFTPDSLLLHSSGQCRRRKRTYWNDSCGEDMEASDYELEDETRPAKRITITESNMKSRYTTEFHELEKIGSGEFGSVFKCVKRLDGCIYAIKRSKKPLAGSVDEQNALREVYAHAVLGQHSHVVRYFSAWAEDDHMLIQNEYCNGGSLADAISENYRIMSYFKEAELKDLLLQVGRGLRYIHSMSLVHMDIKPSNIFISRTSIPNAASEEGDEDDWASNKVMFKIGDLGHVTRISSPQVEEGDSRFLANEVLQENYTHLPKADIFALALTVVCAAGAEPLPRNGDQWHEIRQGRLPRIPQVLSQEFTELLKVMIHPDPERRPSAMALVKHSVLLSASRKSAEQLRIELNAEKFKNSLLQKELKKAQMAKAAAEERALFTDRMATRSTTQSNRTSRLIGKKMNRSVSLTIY
Put plainly: Binding of compound to Wee1 protein and Tracer 178 by TR-FRET (Wee1 kinase inhibitory activity). The settings on record: 15 nM WEE1, 50 nM Tracer 178, read-out: IC50 (inhibitory activity against Wee1 kinase). Background: In TR-FRET formats the signal depends on donor and acceptor labels being close together.

Data set [1] in a line: Liver microsomes in vitro stability (human). The settings on record: read-out: T1/2/min (H). In kind it is in vitro ADME. On the procedure:
(§1) 1. Preparation of Working Solution:
(§2) Microsomes were taken out from the −80° C. refrigerator, rapidly melted in a 37° C. water bath and placed on ice until ready to use. The test article was diluted with DMSO to prepare a 10 mM stock solution, and then diluted with acetonitrile to a 0.5 mM secondary stock solution. […] NADPH was diluted with Buffer C to a working solution of 6 mM for the starter solution. An acetonitrile solution containing an internal standard was prepared as the precipitant, and Verapamil-HCl was chosen as the internal standard at a concentration of 4 ng/ml.
(§3) 2. Experimental Procedure:
(§4) A round-bottom well plate was taken, noted as the reaction plate, and the prepared working solution for each compound was dispensed into the well plate according to the number of replicates and time points (0 h samples were also added to the reaction plate), 30 μL/well; the plate was incubated at 37° C. for 10 min. A separate plate with pointed bottom wells, noted as a precipitation plate, was added with 135 μL precipitant per well; 0 h samples were transferred to the plate after 10 min incubation and 15 μL of starter solution was added; the plate was placed on ice before centrifugation.
(§5) The diluted starter solution was added in sufficient quantity to the dispensing plate to facilitate the multichannel pipette aspiration operation.
(§6) The reaction was carried out on a warm incubation shaker and 15 μL of starter solution/sample is added to the plate using a multichannel pipette. The reaction was mixed with a slight shake to initiate the reaction, which was accurately timed and recorded using a timer. In general, samples with shorter reaction times are initiated late and vice versa early, allowing sufficient time for multiple plate manipulation to terminate the reaction. For example, as for the four experiments of 5, 15, 30, and 60 min, the 60 min experiment was started first, and the 5 min experiment was started later, so as to leave sufficient time for the 5 min group.
(§7) After the reaction time had elapsed, all the solution in the plate was aspirated using the multichannel pipette and added to the precipitation plate to terminate the reaction at that point in time. After all reactions had been terminated, the plates were shaken for ten minutes on a plate shaker at 600 rpm to precipitate the protein. The plate was centrifuged at 4° C. for 15 minutes at maximum rpm. 80 μL of supernatant was taken, 320 μL of pure water was added and mixed for LC-MS analysis.
(Liver microsomes are vesicles of endoplasmic reticulum, rich in cytochrome P450 enzymes.)

Data set [2] can be described thus: Liver microsomes in vitro stability (mouse). In kind it is in vitro ADME. The settings on record: read-out: T1/2/min. On the procedure: as §1, §2, §3, §4, §5, §6, §7
Data set [3] in a line: Pharmacokinetics on single dose in mice (intravenous and oral). The settings on record: male, ICR, mouse, plasma, Oral, 10 mg/kg. In kind it is in vivo, ICR mice. The procedure:
1. Experimental Aim: The present experiment aimed to obtain the pharmacokinetic profile of the subject compounds in ICR mice (both intravenous and oral) 3.1.2 Test System Species: SPF grade male ICR mice Body weight/weekly age: about 30 g 4. […] 4.2 Subjects Given (Route) Intravenous: 1 mg/kg in a volume of 5 mL/kg Gavage: 10 mg/kg in a volume of 10 mL/kg Ultrasound for 5 min before administration 4.3 Subject Preparation (Concentration) Intravenous: 0.2 mg/mL Gavage: 1 mg/mL Fast overnight before administration and feed four hours after administration. […] The blood samples were stored in a refrigerator at or below −20° C. for LC-MS/MS analysis. […] LC-MS/MS Analytical Detection Used 5. Data Processing The samples were detected for drug concentration at each time point by LC-MS/MS. Pharmacokinetic parameters terminal elimination half-life (t1/2), area under the curve (AUC), apparent volume of distribution (Vd), clearance (CL), mean residence time (MRT), and Cmax were calculated using the non-compartmental model of Phoenix WinNonlin 5.2. Bioavailability (F %) was directly from serum concentration results. Mean±standard deviation (X±SD) was used for blood concentration and pharmacokinetic parameters, etc. Specific testing and analytical methods were specified in the form of protocol revisions.

Data set [4] is described as follows: Plasma protein binding (PPB), equilibrium dialysis. To be noted: mouse plasma, 5 h dialysis. In kind it is in vitro ADME. From the text: 1. Experimental Procedure
2. Data Processing and Parameter Calculation

Another data set relates to MIA PaCa2 cells. Put plainly: Anti-proliferative effect on MIA PaCa2 cells by Cell Titer-Glo. In kind it is cell-based. The settings on record: Homo sapiens, MIA PaCa-2, 72 h, 3 days, read-out: MIA PaCa 2 (IC50, inhibition of proliferation in vitro). Summed up: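 Cells exposed to graded compound concentrations for 3 days at 37° C, 5% CO2, final DMSO 0.2%; viability read by CellTiter-Glo luminescence. Inhibition normalised to untreated cells (max) and medium (min); IC50 fitted by variable-slope log(inhibitor)-response model.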

A short description of data set [5]: Membrane permeability study (Caco-2). In kind it is in vitro ADME. The settings on record: human. On the procedure: Caco-2 cells were purchased from the […] (Rockville, MD). The cell culture medium was modified Eagle's medium (MEM) containing 10% inactivated fetal bovine serum and 1% non-essential amino acids.
The cells were incubated for 21-28 days after inoculation for transport experiments and the apparent permeability (Papp) of Lucifer Yellow was used to characterize and verify the compactness of the cell monolayer. […] A 10 μM working solution of the compound to be tested was added to the apical side and basolateral side of Caco-2 and incubated at 37° C. for 90 min. After the incubation, dilute the samples on the apical side and basolateral side, and the concentrations of compounds on the apical and basolateral sides were detected by LC-MS/MS, and the concentrations of the compounds were quantified by standard curve.

A further data set has as its target T2, CYP2B6 (Homo sapiens, UniProt P20813).
T2 sequence (P20813 1-491): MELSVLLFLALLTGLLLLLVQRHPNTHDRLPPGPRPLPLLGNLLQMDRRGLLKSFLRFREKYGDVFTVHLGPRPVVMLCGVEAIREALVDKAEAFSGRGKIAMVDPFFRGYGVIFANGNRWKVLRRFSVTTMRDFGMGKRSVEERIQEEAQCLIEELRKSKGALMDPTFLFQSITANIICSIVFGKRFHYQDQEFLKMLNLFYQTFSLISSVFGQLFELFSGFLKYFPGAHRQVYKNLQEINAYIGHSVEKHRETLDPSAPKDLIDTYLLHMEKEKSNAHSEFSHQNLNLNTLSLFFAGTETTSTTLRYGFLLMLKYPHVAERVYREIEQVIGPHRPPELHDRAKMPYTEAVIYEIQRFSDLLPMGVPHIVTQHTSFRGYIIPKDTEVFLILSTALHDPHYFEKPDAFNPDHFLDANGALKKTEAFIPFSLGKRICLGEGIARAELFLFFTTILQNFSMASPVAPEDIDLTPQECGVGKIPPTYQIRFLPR
Put plainly: CYP450 isoform enzymatic inhibition, 2B6. In kind it is in vitro ADME. To be noted: pH 7.4, read-out: CYP inhibiton/% 2B6.

Setting [6] is: Homo sapiens, NCI-H1299, 72 h, read-out: H1299 (IC50, inhibition of proliferation in vitro).

Each structure is given as a SMILES string. Where two headings read alike, the source gives them in different places.

Protocol for CYP2B6: Enzymatic experiments were performed to quantify the inhibition of CYP450 enzyme activity of each isoform of CYP450 by small molecule inhibitors through fluorescence generated by the oxidation of the The substrate by cytochrome P450. […] The Solution B composition used for the experiment was: 40 U/mL G6PDH (Sigma-aldrich, Cat #G6378). The The substrate mix was 0.05×Solution A, 0.01×Solution B, 50 mM Potassium Phosphate, 0.01 mM BOMCC/0.01 mM EOMCC/0.001 mM DBOMF.

With `C=CCn1c(=O)c2cnc(Nc3ccc(OC4CN5CCC4CC5)cc3)nc2n1-c1cccc(C(C)(C)O)n1` (stereo not drawn) [Compound 4], the IC50 is 1000 to 2000 nM with H1299 cells (setting [6]) and less than 5 nM on Wee1 protein. In addition, the half-life at 1 µM in [1] turned out to be 22.2 min; in data set [2], 10.1 min.

For `C=CCn1c(=O)c2cnc(Nc3ccc(OCC)c(CC4C(=O)C5CCN4CC5)c3)nc2n1-c1cccc(N=S(C)(C)=O)n1` (stereo not drawn) [Compound 9], the IC50 in the data set on H1299 cells (setting [6]) is 1000 to 2000 nM; on Wee1 protein, less than 5 nM. The half-life at 1 µM turned out to be 2.82 min in data set [1] and 0.78 min in [2].

In [3], `C=CCn1c(=O)c2cnc(Nc3ccc(N4CC5CC(C4)N5C4CCC4)cc3)nc2n1-c1cccc(C(C)(C)O)n1` [Compound 49] had an AUC(0-t) of 534 ng·h/mL, a Cmax of 388 ng/mL, an MRT of 68.4 min and a half-life of 61.8 min. The IC50 in the data set on H1299 cells (setting [6]) lay in the range of 100 to 1000 nM. In [4], this compound gave a fraction unbound at 5 h, 1 µM of 0.042. At Wee1 protein, the IC50 was less than 5 nM. In addition, the IC50 in the data set with MIA PaCa2 cells lay in the range of 100 to 1000 nM.

Consider `C=CCn1c(=O)c2cnc(Nc3ccc(N4CC5CC(C4)N5CCF)cc3)nc2n1-c1cccc(C(C)(C)O)n1` [Compound 48], for which, in [3], the AUC(0-t) worked out at 482 ng·h/mL, the Cmax is 470 ng/mL, the MRT was found to be 54 min and the half-life is 38.4 min. Further, in the data set on H1299 cells (setting [6]), the IC50 lay in the range of 100 to 1000 nM. This compound gave a fraction unbound at 5 h, 1 µM in [4] of 0.031. The IC50 on Wee1 protein was less than 5 nM. Further, in the data set with MIA PaCa2 cells, the IC50 lay within 100 to 1000 nM. Also, the efflux ratio at 90 min, 10 µM in data set [5] (Caco-2, pH 7.4) amounted to 2.65. Moreover, the Papp A→B at 90 min, 10 µM in data set [5] (pH 7.4, Caco-2, 10 μM, 90 min, apical to basolateral) worked out at 13.3 ×10⁻⁶ cm/s. The compound further gave a Papp B→A at 90 min, 10 µM in data set [5] (pH 7.4, Caco-2, 10 μM, 90 min, basolateral to apical) of 35.3 ×10⁻⁶ cm/s.

Take `C=CCn1c(=O)c2cnc(Nc3ccc(N4C[C@@H]5C[C@H]4CN5C)cc3)nc2n1-c1cccc(C(C)(C)O)n1` [Compound 3]: on CYP2B6, the inhibition at 30 min, 10 µM came to 1.38%.

In data set [3], `C=CCn1c(=O)c2cnc(Nc3ccc(N4CC5CC(C4)N5C)cc3)nc2n1-c1ccc2cnn(CC)c2n1` [Compound 53] had an AUC(0-t) of 1640 ng·h/mL, a Cmax of 800 ng/mL, an MRT of 115 min and a half-life of 113 min. The IC50 with H1299 cells (listed as Compound53, read-out: H1299 (IC50, inhibition of proliferation in vitro)) lay in the range of 100 to 1000 nM. Besides, the fraction unbound at 5 h, 1 µM in [4] is 0.035. For the same compound, the IC50 on Wee1 protein lay in the range of 5 to 10 nM. For the same compound, the IC50 in the data set on MIA PaCa2 cells was 2000 to 5000 nM.

Turning to `C=CCn1c(=O)c2cnc(Nc3ccc(CC4C(=O)C5CCN4CC5)cc3)nc2n1-c1cccc(N=S(C)(C)=O)n1` (stereo not drawn) [Compound 6], the IC50 with H1299 cells (setting [6]) is 100 to 1000 nM; at Wee1 protein it was less than 5 nM. Moreover, the figures for the half-life at 1 µM in data set [1] and in data set [2] were 5.16 min and 5.72 min, respectively.

For the compound `C=CCn1c(=O)c2cnc(Nc3cccc(CC4C(=O)C5CCN4CC5)c3)nc2n1-c1cccc(N=S(C)(C)=O)n1` (stereo not drawn) [Compound 10], the values for the IC50 in the data set on H1299 cells (setting [6]) and at Wee1 protein were 100 to 1000 nM and less than 5 nM, respectively. Also, the values for the half-life at 1 µM in data set [1] and in data set [2] were 8.31 min and 1.34 min, respectively.

`C=CCn1c(=O)c2cnc(Nc3ccc(N4CC5CC(C4)N5C)cc3)nc2n1-c1ccc2ccn(CC)c2n1` [Compound 51] had an AUC(0-t) in [3] of 430 ng·h/mL. This compound showed a Cmax in data set [3] of 290 ng/mL. The same compound gave an MRT in [3] of 70.8 min. In [3], this compound gave a half-life of 57 min. For the same compound, the values for the IC50 in the data set on H1299 cells (setting [6]), at Wee1 protein and in the data set with MIA PaCa2 cells were 100 to 1000 nM, less than 5 nM and 100 to 1000 nM, respectively. In [4], this compound gave a fraction unbound at 5 h, 1 µM of 0.03. For the same compound, the half-life at 1 µM was 19 min in data set [1] and 14.7 min in data set [2].

With `C=CCn1c(=O)c2cnc(Nc3ccc(N4CCOC5(CCCN(C)C5)C4)cc3)nc2n1-c1cccc(C(C)(C)O)n1` (stereo not drawn) [Compound 46], the IC50 in the data set with H1299 cells (setting [6]) is 100 to 1000 nM; at Wee1 protein it was 10 to 100 nM; in the data set on MIA PaCa2 cells, 100 to 1000 nM. Also, the fraction unbound at 5 h, 1 µM in [4] is 0.179. The half-life at 1 µM in data set [1] is 16.8 min; in [2], 13.6 min.

Broadly, the AUC(0-t) is the area under the concentration-time curve up to a stated or last time point. Low values mean less exposure, high ones more exposure. In general, Cmax refers to the highest concentration seen after dosing. For orientation: MRT means a mean duration of stay, worked out from the concentration-time curve. What is called fraction unbound is free concentration divided by total concentration. Read a low fraction unbound as extensive binding. Usually efflux ratio stands for a quotient of directional permeabilities that is used to spot active efflux. In general, Papp A→B refers to the apparent permeability from the apical to the basolateral side of a cell layer. Low readings indicate poor permeation, high ones ready permeation. Usually Papp B→A stands for how fast a substance crosses the layer from the basolateral side.

The values are drawn from patent US20250034151A1, “WEE1 INHIBITOR, PREPARATION THEREFOR, AND USE THEREOF” (JIANGSU TASLY DIYI PHARMACEUTICAL CO., LTD., priority 2022, published 2025).
